Experimental findings from patent US12152017B2, “Ketoamide compound and preparation method, pharmaceutical composition, and use thereof” (Shanghai Institute of Materia Medica, Chinese Academy of …, priority 2018, dated 2024) are described below.

Molecules are shown by their SMILES. “And” between values parts separate entries of the source, which are not always exact repeats. Equal entries are not always repeated. Where two headings read alike, the source gives them in different places. Where only a bound is given, the exact number is not on record here.

For one series, the system named is MERS-CoV pseudovirus. In words: microbe, parasite or virus in culture. Type of series: cell-based. As to conditions: Middle East respiratory syndrome-related coronavirus, Huh-7, read-out: MERS-CoV pseudovirus inhibitory activity IC50.
Series [1] in a line: Pharmacokinetic study in CD-1 mice (gavage, intravenous, intraperitoneal). As to conditions: 20 mg/kg; for Cmax / Tmax / half-life / AUC(0-inf) / AUC(0-t) / MRT inf: male, CD-1, mouse, plasma; for AUC(0-inf): read-out: AUC INF_obs; for MRT inf: read-out: MRT INF_obs. Type of series: in vivo. The protocol:
Nine CD-1 mice, male, weighing 18-22 g, were randomly divided into 3 groups with 3 mice in each group. The test compounds were administered by gavage, intravenously and intraperitoneally according to the following schemes.
Before the test, they were fasted for 12 hours and were allowed to drink water freely, and were fed uniformly 2 h after administration.
There were 3 animals at each time point.
The solution for gavage administration was formulated with DMSO/0.5% HPMC (5/95, v/v) into the final concentration. Intravenous and intraperitoneal administration were formulated with DMSO/PEG300/EtOH/NaCl (5/40/5/50, v/v/v). Retention samples of the dosing solution (50 μL of the drug solution was taken and mixed well with 50 μL of DMSO before and after the administration) for testing.
The drug was administered according to the above dosage, the time of administration were recorded, and 20 μL of blood was collected from the mouse femoral plexus at the above set time point and placed in a heparinized test tube and centrifuged immediately at 11000 rpm for 5 min. 10 μL of plasma was immediately and accurately drawn into a centrifuge tube pre-filled with 100 μL of PK-IS solution (prepared with methanol:acetonitrile (1:1, v/v)), mixed well, and frozen to store at −20° C. for testing.

Setting [2] is: i.p. (20 mg/Kg per Table 3), individual animal.
The mark [3] stands for this setting: ip, i.p. (20 mg/Kg per Table 3), Mean of 3 mice.
Where [4] appears, read: ip, i.p. (20 mg/Kg per Table 3), individual animal.
The mark [5] stands for this setting: po, p.o. (gavage 20 mg/Kg per Table 3), Mean of 3 mice.
[6] abbreviates: po, p.o. (gavage 20 mg/Kg per Table 3), individual animal.
Where [7] appears, read: p.o. (gavage 20 mg/Kg per Table 3), individual animal.

For the molecule `O=C(NCc1ccccc1)C(=O)[C@H](C[C@@H]1CCCNC1=O)NC(=O)[C@H](CC1CCCCC1)NC(=O)c1cc2ccccc2[nH]1` [Example A5], in the series on MERS-CoV pseudovirus, the IC50 is 0.5 ± 0.2 nM.

As for `O=C(NCc1ccccc1)C(=O)[C@H](C[C@@H]1CCNC1=O)NC(=O)[C@H](CC1CCCCC1)NC(=O)c1cc2ccccc2o1` [Example A9, N—((S)-1-(((S)-4-(benzylamino)-3,4-dione-1-((S)-2-oxopyrrolidine-3-yl)but-2-yl)amino)-3-cyclohexyl-1-oxopropan-2-yl)-benzofuran-2-carboxamide], in the series with MERS-CoV pseudovirus, the IC50 was 1 ± 0.7 nM. In addition, in series [1] (setting [2]), the “AUC INF_obs” value is 6825 ng·h/mL and 10574 ng·h/mL; the AUC last was 6786 ng·h/mL and 10138 ng·h/mL; the C max was 2859 ng/mL and 2364 ng/mL; the “MRT INF_obs” value was 2.70 h and 3.19 h and 6.07 h. Further, in series [1] (setting [2]), the T1/2 was 3.67 h and 5.11 h; the T max turned out to be 45 min. Further, in series [1] (setting [3]), the Cmax was found to be 2910 ng/mL, the Tmax stood at 25.2 min, the half-life was 241 min and the AUC(0-inf) was found to be 8360 ng·h/mL. For the same molecule, the MRT inf in series [1] (setting [3]) worked out at 3.99 h. The AUC(0-t) in series [1] (ip, i.p. (20 mg/Kg per Table 3), Mean of 3 mice, read-out: AUC last (exposure for intraperitoneal injection)) came out at 8190 ng·h/mL. For the same molecule, in series [1] (setting [4]), the concentration peaked (Cmax) at 3520 ng/mL, the half-life was 197 min and the AUC(0-inf) came out at 7670 ng·h/mL. The AUC(0-t) in series [1] (ip, i.p. (20 mg/Kg per Table 3), individual animal, read-out: AUC last) was 7650 ng·h/mL. Also, in series [1] (setting [5]), the peak concentration (Cmax) came to 498 ng/mL, the time to peak (Tmax) turned out to be 15 min, the half-life is 76.2 min and the AUC(0-inf) was found to be 589 ng·h/mL. Moreover, the MRT inf in series [1] (setting [5]) was 1.77 h. For the same molecule, in series [1] (po, p.o. (gavage 20 mg/Kg per Table 3), Mean of 3 mice, read-out: AUC last (oral exposure)), the AUC(0-t) is 584 ng·h/mL. In addition, in series [1] (setting [6]), the Tmax came to 15 min, the half-life is 67.8 min and the MRT inf was found to be 1.35 h. In addition, in series [1] (setting [7]), the “AUC INF_obs” value is 451 ng·h/mL and 1146 ng·h/mL and 171 ng·h/mL; the AUC last was 447 ng·h/mL and 1143 ng·h/mL and 163 ng·h/mL; the C max was 546 ng/mL and 864 ng/mL and 84 ng/mL; the “MRT INF_obs” value was 1.33 h and 2.63 h. The T1/2 in series [1] (setting [7]) was 0.91 h and 1.77 h.

For `O=C(NC1CCCCC1)C(=O)[C@H](C[C@@H]1CCCNC1=O)NC(=O)[C@H](CC1CCCCC1)NC(=O)c1cc2ccccc2o1` [Example A15], the IC50 in the series on MERS-CoV pseudovirus is under 0.1 nM.

For the molecule `O=C(NCc1ccccc1)C(=O)[C@H](C[C@@H]1CCCNC1=O)NC(=O)[C@H](CC1CCCCC1)NC(=O)c1cc2ccccc2s1` [Example A21], the IC50 in the series with MERS-CoV pseudovirus is 8.2 ± 3.2 nM.

With `Cn1c(C(=O)N[C@@H](CC2CCCCC2)C(=O)N[C@@H](C[C@@H]2CCNC2=O)C(=O)C(=O)NC(C)(C)C)cc2ccccc21` [Example A25], in the series with MERS-CoV pseudovirus, the IC50 is 407 ± 352 nM.

For `Cn1c(C(=O)N[C@@H](CC2CCCCC2)C(=O)N[C@@H](C[C@@H]2CCNC2=O)C(=O)C(=O)NC2CCCCC2)cc2ccccc21` [Example A26, N—((S)-3-cyclohexyl-1-(((S)-4-(cyclohexylamino)-3,4-dione-1-((S)-2-oxopyrrolidine-3-yl)but-2-yl)amino)-3-cyclohexyl-1-oxopropan-2-yl)-1-methyl-1H-indole-2-carboxamide], the IC50 in the series on MERS-CoV pseudovirus was 7.8 ± 3.5 nM.

Consider `Cn1c(C(=O)N[C@@H](CC2CCCCC2)C(=O)N[C@@H](C[C@@H]2CCCNC2=O)C(=O)C(=O)NCc2ccccc2)cc2ccccc21` [Example A27], for which the IC50 in the series on MERS-CoV pseudovirus was 8 ± 4 nM.

Regarding `CC(C)(C)NC(=O)C(=O)[C@H](C[C@@H]1CCNC1=O)NC(=O)[C@H](CC1CCCCC1)NC(=O)c1ccc2ccccc2n1` [Example A43], the IC50 in the series with MERS-CoV pseudovirus is 786 ± 458 nM.

As for `O=C(NC1CCCCC1)C(=O)[C@H](C[C@@H]1CCNC1=O)NC(=O)[C@H](CC1CCCCC1)NC(=O)c1ccc2ccccc2n1` [Example A44, N—((S)-3-cyclohexyl-1-(((S)-4-(cyclohexylamino)-3,4-dione-1-((S)-2-oxopyrrolidine-3-yl)but-2-yl)amino)-3-cyclohexyl-1-oxopropan-2-yl)-quinoline-2-carboxamide], in the series on MERS-CoV pseudovirus, the IC50 came to 18 ± 5.6 nM.

Turning to `O=C(NCc1ccccc1)C(=O)[C@H](C[C@@H]1CCCNC1=O)NC(=O)[C@H](Cc1ccccc1)NC(=O)c1cc2ccccc2[nH]1` [Example A51, N—((S)-1-(((S)-4-(benzylamino)-3,4-dione-1-((S)-2-oxopiperidine-3-yl)but-2-yl)amino)-1-oxo-3-phenylpropan-2-yl)-1H-indole-2-carboxamide], the IC50 in the series on MERS-CoV pseudovirus was under 0.1 nM.

For `O=C(NCc1ccccc1)C(=O)[C@H](C[C@@H]1CCCNC1=O)NC(=O)[C@H](Cc1ccccc1)NC(=O)c1cnc2ccccc2n1` [Example A81, N—((S)-1-(((S)-4-(benzylamino)-3,4-dione-1-((S)-2-oxopiperidine-3-yl)but-2-yl)amino)-1-oxo-3-phenylpropan-2-yl)-quinoxaline-2-carboxamide], the IC50 with MERS-CoV pseudovirus came to 0.2 ± 0.1 nM.

With `CC(C)NC(=O)CC[C@H](NC(=O)[C@H](CC1CCCCC1)NC(=O)c1cc2ccccc2[nH]1)C(=O)C(=O)NCc1ccccc1` [Example A232, N—((S)-1-(((S)-4-(benzyl)-3,4-dione-1-(isopropylamino)-2-yl)amino)-3-(cyclohexyl)-1-oxopropan-2-yl)-1H-indole-2-carboxamide], the IC50 with MERS-CoV pseudovirus was 13.4 ± 3 nM.

In the case of `CC(C)NC(=O)CC[C@H](NC(=O)[C@H](CC1CCCCC1)NC(=O)c1cnc2ccccc2n1)C(=O)C(=O)NCc1ccccc1` [Example A236, N—((S)-1-(((S)-4-(benzyl)-3,4-dione-1-(isopropylamino)-2-yl)amino)-3-(cyclohexyl)-1-oxopropan-2-yl)-quinoxaline-2-carboxamide], in the series on MERS-CoV pseudovirus, the IC50 was 16.6 ± 4 nM.

For the molecule `O=C(NCc1ccccc1)C(=O)[C@H](C[C@@H]1CCCNC1=O)NC(=O)[C@H](CC1CCCCC1)NC(=O)c1cc2ccc(F)cc2[nH]1` [Example A240], in the series on MERS-CoV pseudovirus, the IC50 came to 15.9 ± 7 nM.

For `O=C(NCc1ccccc1)C(=O)[C@H](C[C@@H]1CCCNC1=O)NC(=O)C(CC1CCCCC1)NC(=O)c1ccc2c(c1)OCO2` (stereo partly shown) [Example A243], the IC50 with MERS-CoV pseudovirus was found to be 10.7 ± 0.8 nM.

`O=C(NCc1ccccc1)C(=O)[C@H](C[C@@H]1CCCNC1=O)NC(=O)C(CC1CCCCC1)NC(=O)c1nc2ccccc2[nH]1` (stereo partly shown) [Example A244]: in the series on MERS-CoV pseudovirus, the half-maximal inhibitory concentration (IC50) came out at 12.6 ± 12.2 nM.

With `COc1cccc2cc(C(=O)NC(CC3CCCCC3)C(=O)N[C@@H](C[C@@H]3CCCNC3=O)C(=O)C(=O)NCc3ccccc3)oc12` (stereo partly shown) [Example A245], in the series on MERS-CoV pseudovirus, the IC50 amounted to 18.4 ± 8 nM.

For `Cc1c(C(=O)NC(CC2CCCCC2)C(=O)N[C@@H](C[C@@H]2CCCNC2=O)C(=O)C(=O)NCc2ccccc2)oc2ccccc12` (stereo partly shown) [Example A246], the IC50 in the series on MERS-CoV pseudovirus is 10.8 ± 10 nM.

In the case of `Cc1ccc2oc(C(=O)NC(CC3CCCCC3)C(=O)N[C@@H](C[C@@H]3CCCNC3=O)C(=O)C(=O)NCc3ccccc3)c(C)c2c1` (stereo partly shown) [Example A247], in the series on MERS-CoV pseudovirus, the IC50 worked out at 1.7 ± 0.4 nM.

Take `COc1ccc(OC)c2oc(C(=O)NC(CC3CCCCC3)C(=O)N[C@@H](C[C@@H]3CCCNC3=O)C(=O)C(=O)NCc3ccccc3)cc12` (stereo partly shown) [Example A248]: the IC50 in the series on MERS-CoV pseudovirus stood at 8.4 ± 1.7 nM.

In the case of `O=C(NCc1ccccc1)C(=O)[C@H](C[C@@H]1CCCNC1=O)NC(=O)C(CC1CCCCC1)NC(=O)c1coc2ccccc12` (stereo partly shown) [Example A249], the IC50 in the series with MERS-CoV pseudovirus was 0.6 ± 0.2 nM.

`O=C(NCc1ccccc1)C(=O)[C@H](C[C@@H]1CCCNC1=O)NC(=O)C(CC1CCCCC1)NC(=O)C1=Cc2cc(Cl)ccc2OC1` (stereo partly shown) [Example A250]: in the series on MERS-CoV pseudovirus, the IC50 was 0.7 ± 0.1 nM.
